Laboratory results taken from patent publication US20240016788A1, “PHARMACEUTICAL COMPOSITION FOR PREVENTING OR TREATING DIABETIC AND POSTMENOPAUSAL OSTEOPOROSIS, CONTAINING ADIPORON” (PnP Biopharm Co., Ltd., priority 2020, published 2024).

Tests used:
Assay type in all cases: in vivo
[1] = system: type 2 diabetic db/db mice; experiment: Body weight, blood biochemistry and 24-hour urine oxidative stress in diabetic osteoporosis model db/db mice
Description: (§1) A leptin receptor-defective type 2 diabetic animal model (db/db mice) and a normal control group (db/m mice) were used, and the experiment was performed by dividing into 4 groups as follows: non-diabetic control group (dm cont, n=8), non-diabetic adiporon treatment group (dm+AdipoR, n=8), diabetic control group (db cont, n=8) and diabetic adiporon treatment group (db+AdipoR, n=8). The control group was fed a normal diet, and the adiporon treatment group was fed a diet comprising adiporon (30 mg/kg/day) for 4 weeks from 16 weeks of age. During the experiment, body weight was measured every week, fasting blood glucose was measured using an Accu-Chek meter (Roche Diagnostics, St. Louis, MO) every 2 weeks after blood was collected from the tail vein, and glycated hemoglobin (HbA1c) was measured every 4 weeks using a […] automatic analyzer (Bayer healthcare LLC, IN) after blood was collected from the tail vein. The temperature and humidity of the breeding room were maintained at 20˜25° C. and 50˜60%, respectively, and the lights were turned on and off at 12-hour intervals. In both experiments, blood collected from each mouse was allowed to stand at room temperature for 30 minutes, and then centrifuged at 3000 rpm for 15 minutes to obtain serum. Blood levels of tartrate-resistant acid phosphatase (TRAP/ACP5) and osterocalcin concentration were measured by ELISA. In addition, 8-hydroxy-deoxyguanosine, a DNA damage marker caused by oxidative stress, and isoprostane, a marker of oxidative stress caused by lipid peroxidation caused by free fatty acids, and deoxypyridinoline (DPP), which indicates the function of osteoclasts, were measured in 24-hour urine concentrations by ELISA method.

non-diabetic db/m mice = experiment: Body weight, blood biochemistry and 24-hour urine oxidative stress in non-diabetic db/m mice; conditions: adiporon 30 mg/kg/day in diet for 4 weeks, mean ± SD
Description: as §1

[2] = system: type 2 diabetic db/db mice; experiment: Micro-CT of ilium (femur) and lumbar vertebra 5, db/db mice; conditions: adiporon 30 mg/kg/day, 4 weeks
Description: A leptin receptor-defective type 2 diabetic animal model (db/db mice) and a normal control group (db/m mice) were used, and the experiment was performed by dividing into 4 groups as follows: non-diabetic control group (dm cont, n=8), non-diabetic adiporon treatment group (dm+AdipoR, n=8), diabetic control group (db cont, n=8) and diabetic adiporon treatment group (db+AdipoR, n=8). The control group was fed a normal diet, and the adiporon treatment group was fed a diet comprising adiporon (30 mg/kg/day) for 4 weeks from 16 weeks of age. During the experiment, body weight was measured every week, fasting blood glucose was measured using an Accu-Chek meter (Roche Diagnostics, St. Louis, MO) every 2 weeks after blood was collected from the tail vein, and glycated hemoglobin (HbA1c) was measured every 4 weeks using a […] automatic analyzer (Bayer healthcare LLC, IN) after blood was collected from the tail vein. The temperature and humidity of the breeding room were maintained at 20˜25° C. and 50˜60%, respectively, and the lights were turned on and off at 12-hour intervals. The imaging was performed with micro-CT (Skyscan 1172, Belgium), the tube voltage was 60 kV, the tube current was 167 uA, 0.5 mm aluminum filtration was used, and the pixel size was 5.9 μm. For the shooting angle, a 2-dimensional image was reconstructed with Nrecon Reconstruction (Skyscan, Belgium). For 3D image analysis, CTAn (Skyscan, Belgium) was used, images were obtained by rotating 360°, and exposure time was 440 ms. A total of 7 types of indicators were used in this invention. BMD (bone mineral density, bone density) was measured based on phantoms of 0.25 g/cm^3 and 0.75 g/cm^3. BV/TV (Bone volume/Total volume, percent bone volume, %) is the ratio of voxels representing the solid region out of the total voxels present in the binarized and surfaced volume of interest, and it means the ratio occupied by bone trabeculae within the volume of interest, and i.s (Interception surfaces, mm2) means the generation of new bone. […] BS/BV (Bone surface/Bone volume, bone specific surface, mm^−1) is the ratio of the voxel surface area to the number of voxels in the binarized solid region within the volume of interest and it means the ratio of the surface area of the trabecular bone to the volume of the trabecular bone. The lower the value, the higher the bone strength. Tb.Th (trabecular thickness, mm) is obtained by averaging the diameters of these spheres, after placing a sphere comprising the corresponding voxel for each voxel representing the solid region within the volume of interest so that the size of the sphere is the largest that includes only the solid region and it means the average thickness of the trabecular bone. […] In the same way, using Tb.Sp (trabecular separation, mm), the average length between trabecular lines and Tb.N (trabecular number, mm^−1) were used to obtain the average number of trabecular lines.

[3] = system: type 2 diabetic db/db mice; experiment: Serum ACP5/TRAP, osteocalcin and urine deoxypyridinoline by ELISA, db/db mice; conditions: adiporon 30 mg/kg/day, 4 weeks
Description: as §1

[4] = db/db mice (type 2 diabetic), adiporon 30 mg/kg/day in diet for 4 weeks, mean ± SD
[5] = db/db mice, adiporon 30 mg/kg/day, 4 weeks, result in words

Cl.O=C(COc1ccc(C(=O)c2ccccc2)cc1)NC1CCN(Cc2ccccc2)CC1 [adiporon]
Body wt [1, 4]: 53 ± 4.8 g | Urinary 8-OHDG [1, 4]: 74.5 ± 19.6 ng/24 h | Urinary isoprostane [1, 4]: 19.3 ± 9.4 ng/24 h | Changes of body weight, blood glucose, glycated hemoglobin, blood total cholesterol, triglyceride, free fatty acid and blood adiponectin ([1]; db/db mice vs db/m, adiporon 30 mg/kg/day, 4 weeks, result in words): restored | 24-hour urine concentration of 8-hydroxy-deoxyguanosine (increase in db/db) [1, 5]: improved the index increase | 24-hour urine concentration of isoprostane (increase in db/db) [1, 5]: improved the index increase | Blood glucose (non-diabetic db/m mice): 136 ± 8 mg/dL | HbA1c (non-diabetic db/m mice): 3.8 ± 0.2% | Serum NEFA (non-diabetic db/m mice): 0.67 ± 0.23 mEq/I | Serum TC (non-diabetic db/m mice): 2.5 ± 0.4 mmol/L | Serum TG (non-diabetic db/m mice): 1.4 ± 0.2 mmol/L | Serum adiponectin (non-diabetic db/m mice): 11214 ± 1214 ng/mL | Urinary 8-OHDG (non-diabetic db/m mice): 36.5 ± 14.5 ng/24 h | Urinary isoprostane (non-diabetic db/m mice): 4.3 ± 2.2 ng/24 h | Bone mineral density index (micro-CT) ([2]; ilium): significantly increased and improved | Bone surface index (micro-CT) ([2]; ilium): significantly increased and improved | Bone volume index (micro-CT) ([2]; ilium): significantly increased and improved | Trabecular number index (micro-CT) ([2]; ilium): significantly increased and improved | Trabecular thickness index (micro-CT) ([2]; ilium): significantly increased and improved | Trabecular thickness (micro-CT) ([2]; vertebrae (lumbar vertebrae 5)): increased and improved | Decreased serum ACP5/TRAP concentration ([3]; ELISA): restored | Decreased serum osteocalcin concentration ([3]; ELISA): restored | Increased concentration of deoxypyridinoline in urine ([3]; P<0.001): reversed
